Where two headings read alike, the source gives them in different places.
What was measured:
Format in all cases: cell-based
[1] = test system: mantle cell lymphoma cell (Mino or JeKo-1); assay: Antiproliferative effect, MTS cell viability assay
Method: Antiproliferative effect of the exemplary compounds was assessed in B-cell malignancy models.
To assess the effect of the exemplary compounds on cell viability in B-cell malignancy models by degradation of CDK4/6 proteins, Mino cells were treated with varying concentrations of exemplary compounds (0, 0.0001, 0.001, 0.01, 0.1, 1 μM) or positive control (palbociclib and abemaciclib). Under these conditions, cell viability was determined by an MTS assay. Cytotoxicity was assayed by the determination of reduced tetrazolium (formazan) created by metabolically active cells as detected at 490 nanometers (nm) absorbance using a microplate reader (BMG Labtech, Cary, NC, USA).
The exemplary compounds attenuated the viability of Mino cells in a concentration-dependent manner at 72 h post treatment. Results are shown in Table 1 and FIGS. 2-15 for each exemplary compound.

CDK4 = target: T1, CDK4 (Homo sapiens, UniProt P11802); assay: CDK4 degradation (DC50, Dmax)
T1 construct: endogenous in cells
T1 sequence (P11802 whole entry): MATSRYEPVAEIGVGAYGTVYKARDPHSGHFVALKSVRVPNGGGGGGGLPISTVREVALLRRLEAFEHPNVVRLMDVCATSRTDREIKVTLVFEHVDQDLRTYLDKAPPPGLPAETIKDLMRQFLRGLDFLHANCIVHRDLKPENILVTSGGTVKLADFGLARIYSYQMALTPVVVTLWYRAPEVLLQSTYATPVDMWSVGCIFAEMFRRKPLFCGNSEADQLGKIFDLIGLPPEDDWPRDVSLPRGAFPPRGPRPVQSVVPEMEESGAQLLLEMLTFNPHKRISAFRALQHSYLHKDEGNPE

CDK6 = target: T2, CDK6 (Homo sapiens, UniProt Q00534); assay: CDK6 degradation (DC50, Dmax)
T2 construct: endogenous in cells
T2 sequence (Q00534 whole entry): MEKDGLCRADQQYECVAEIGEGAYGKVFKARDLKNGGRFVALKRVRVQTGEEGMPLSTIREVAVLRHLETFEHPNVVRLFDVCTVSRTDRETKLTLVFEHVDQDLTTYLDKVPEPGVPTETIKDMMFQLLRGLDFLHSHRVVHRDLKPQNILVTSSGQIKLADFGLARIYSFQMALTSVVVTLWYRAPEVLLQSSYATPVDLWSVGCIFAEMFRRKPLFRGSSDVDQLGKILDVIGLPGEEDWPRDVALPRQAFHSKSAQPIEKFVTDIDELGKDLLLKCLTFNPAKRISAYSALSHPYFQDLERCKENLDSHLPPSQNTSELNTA

[2] = 72 h, mantle cell lymphoma cell (Mino or JeKo-1), MTS assay, read-out: IC50 (anti-proliferation)

Row | Compound | DC50 (CDK4) [nM] | Dmax (CDK4) [%] | DC50 (CDK6) [nM] | Dmax (CDK6) [%] | IC50 [1, 2] [nM] | IC50 ([1]; mantle cell lymphoma cell (Mino or JeKo-1); MTS assay, 72 h; read-out: IC50 (anti-proliferation)) [nM]
1 | CC(=O)c1c(C)c2cnc(Nc3ccc(N4CCN(C(=O)N5CCN(c6ccc7c(c6)C(=O)N(C6CCC(=O)NC6=O)C7=O)CC5)CC4)cn3)nc2n(C2CCCC2)c1=O (stereo not drawn) [Compound 1, 5-(4-(4-(6-((6-acetyl-8-cyclopentyl-5-methyl-7-oxo-7,8-dihydropyrido[2,3-d]pyrimidin-2-yl)amino)pyridin-3-yl)piperazine-1-carbonyl)piperazin-1-yl)-2-(2,6-dioxopiperidin-3-yl) isoindoline-1,3-dione] | 50 to 200 | > 60 | < 50 | > 60 |  | < 50
2 | CC(=O)c1c(C)c2cnc(Nc3ccc(N4CCN(C(=O)N5CCN(c6ccc7c(c6)CN(C6CCC(=O)NC6=O)C7=O)CC5)CC4)cn3)nc2n(C2CCCC2)c1=O (stereo not drawn) [Compound 2, 3-(5-(4-(4-(6-((6-acetyl-8-cyclopentyl-5-methyl-7-oxo-7,8-dihydropyrido[2,3-d]pyrimidin-2-yl)amino)pyridin-3-yl)piperazine-1-carbonyl)piperazin-1-yl)-1-oxoisoindolin-2-yl)piperidine-2,6-dione] | > 200 | > 60 | > 200 | > 60 | 50 to 200 | 
3 | CC(=O)c1c(C)c2cnc(Nc3ccc(N4CCN(C(=O)N5CCN(C6CCN(c7ccc8c(c7)CN(C7CCC(=O)NC7=O)C8=O)CC6)CC5)CC4)cn3)nc2n(C2CCCC2)c1=O (stereo not drawn) [Compound 6, 3-(5-(4-(4-(4-(6-((6-acetyl-8-cyclopentyl-5-methyl-7-oxo-7,8-dihydropyrido[2,3-d]pyrimidin-2-yl)amino)pyridin-3-yl)piperazine-1-carbonyl)piperazin-1-yl)piperidin-1-yl)-1-oxoisoindolin-2-yl)piperidine-2,6-dione] | > 200 | > 50 | > 200 | > 50 | > 200 | 
4 | CC(=O)c1c(C)c2cnc(Nc3ccc(N4CCN(C(=O)N5CCC(N6CCC(c7ccc8c(c7)CN(C7CCC(=O)NC7=O)C8=O)CC6)CC5)CC4)cn3)nc2n(C2CCCC2)c1=O (stereo not drawn) [Compound 8, 3-(5-(1′-(4-(6-((6-acetyl-8-cyclopentyl-5-methyl-7-oxo-7,8-dihydropyrido[2,3-d]pyrimidin-2-yl)amino)pyridin-3-yl)piperazine-1-carbonyl)-[1,4′-bipiperidin]-4-yl)-1-oxoisoindolin-2-yl)piperidine-2,6-dione] | > 200 | > 60 | > 200 | > 50 | > 200 | 
5 | CC(=O)c1c(C)c2cnc(Nc3ccc(N4CCN(C(=O)N5CCC(C6CCN(c7ccc8c(c7)CN(C7CCC(=O)NC7=O)C8=O)CC6)CC5)CC4)cn3)nc2n(C2CCCC2)c1=O (stereo not drawn) [Compound 10, 3-(5-(1′-(4-(6-((6-acetyl-8-cyclopentyl-5-methyl-7-oxo-7,8-dihydropyrido[2,3-d]pyrimidin-2-yl)amino)pyridin-3-yl)piperazine-1-carbonyl)-[4,4′-bipiperidin]-1-yl)-1-oxoisoindolin-2-yl)piperidine-2,6-dione] | > 200 | > 50 | > 200 | > 50 | > 200 | 
6 | CC(=O)c1c(C)c2cnc(Nc3ccc(N4CCN(C(=O)N5CCC(CN6CCN(c7ccc8c(c7)CN(C7CCC(=O)NC7=O)C8=O)CC6)CC5)CC4)cn3)nc2n(C2CCCC2)c1=O (stereo not drawn) [Compound 12, 3-(5-(4-((1-(4-(6-((6-acetyl-8-cyclopentyl-5-methyl-7-oxo-7,8-dihydropyrido[2,3-d]pyrimidin-2-yl)amino)pyridin-3-yl)piperazine-1-carbonyl)piperidin-4-yl)methyl)piperazin-1-yl)-1-oxoisoindolin-2-yl)piperidine-2,6-dione] | > 200 | > 60 | > 200 | > 60 | 50 to 200 | 
7 | CC(=O)c1c(C)c2cnc(Nc3ccc(N4CCN(C(=O)N5CCC(CC6CCN(c7ccc8c(c7)C(=O)N(C7CCC(=O)NC7=O)C8=O)CC6)CC5)CC4)cn3)nc2n(C2CCCC2)c1=O (stereo not drawn) [Compound 13, 5-(4-((1-(4-(6-((6-acetyl-8-cyclopentyl-5-methyl-7-oxo-7,8-dihydropyrido[2,3-d]pyrimidin-2-yl)amino)pyridin-3-yl)piperazine-1-carbonyl)piperidin-4-yl)methyl)piperidin-1-yl)-2-(2,6-dioxopiperidin-3-yl)isoindoline-1,3-dione] | 50 to 200 | > 60 | 50 to 200 | > 60 | 50 to 200 | 
8 | CC(=O)c1c(C)c2cnc(Nc3ccc(N4CCN(C(=O)N5CCC(CC6CCN(c7ccc8c(c7)CN(C7CCC(=O)NC7=O)C8=O)CC6)CC5)CC4)cn3)nc2n(C2CCCC2)c1=O (stereo not drawn) [Compound 14, 3-(5-(4-((1-(4-(6-((6-acetyl-8-cyclopentyl-5-methyl-7-oxo-7,8-dihydropyrido[2,3-d]pyrimidin-2-yl)amino)pyridin-3-yl)piperazine-1-carbonyl)piperidin-4-yl)methyl)piperidin-1-yl)-1-oxoisoindolin-2-yl)piperidine-2,6-dione] | > 200 | > 50 | > 200 | > 60 | 50 to 200 | 

Second part, led by results:

Row | DC50 (CDK4) [nM] | Dmax (CDK4) [%] | DC50 (CDK6) [nM] | Dmax (CDK6) [%] | IC50 [1, 2] [nM] | Compound | IC50 ([1]; mantle cell lymphoma cell (Mino or JeKo-1); MTS assay, 72 h; read-out: IC50 (anti-proliferation)) [nM]
9 | > 200 | > 50 | > 200 | > 50 | 50 to 200 | CC(=O)c1c(C)c2cnc(Nc3ccc(N4CCN(C(=O)N5CCC(N6CCN(c7ccc8c(c7)C(=O)N(C7CCC(=O)NC7=O)C8=O)CC6)CC5)CC4)cn3)nc2n(C2CCCC2)c1=O (stereo not drawn) [Compound 3, 5-(4-(1-(4-(6-((6-acetyl-8-cyclopentyl-5-methyl-7-oxo-7,8-dihydropyrido[2,3-d]pyrimidin-2-yl)amino)pyridin-3-yl)piperazine-1-carbonyl)piperidin-4-yl)piperazin-1-yl)-2-(2,6-dioxopiperidin-3-yl)isoindoline-1,3-dione] | 
10 | > 200 | > 50 | > 200 | > 50 | 50 to 200 | CC(=O)c1c(C)c2cnc(Nc3ccc(N4CCN(C(=O)N5CCC(N6CCN(c7ccc8c(c7)CN(C7CCC(=O)NC7=O)C8=O)CC6)CC5)CC4)cn3)nc2n(C2CCCC2)c1=O (stereo not drawn) [Compound 4, 3-(5-(4-(1-(4-(6-((6-acetyl-8-cyclopentyl-5-methyl-7-oxo-7,8-dihydropyrido[2,3-d]pyrimidin-2-yl)amino)pyridin-3-yl)piperazine-1-carbonyl)piperidin-4-yl)piperazin-1-yl)-1-oxoisoindolin-2-yl)piperidine-2,6-dione] | 
11 | > 200 | > 60 | > 200 | > 60 | 50 to 200 | CC(=O)c1c(C)c2cnc(Nc3ccc(N4CCN(C(=O)N5CCN(C6CCN(c7ccc8c(c7)C(=O)N(C7CCC(=O)NC7=O)C8=O)CC6)CC5)CC4)cn3)nc2n(C2CCCC2)c1=O (stereo not drawn) [Compound 5, 5-(4-(4-(4-(6-((6-acetyl-8-cyclopentyl-5-methyl-7-oxo-7,8-dihydropyrido[2,3-d]pyrimidin-2-yl)amino)pyridin-3-yl)piperazine-1-carbonyl)piperazin-1-yl)piperidin-1-yl)-2-(2,6-dioxopiperidin-3-yl)isoindoline-1,3-dione] | 
12 | 50 to 200 | > 60 | 50 to 200 | > 60 | 50 to 200 | CC(=O)c1c(C)c2cnc(Nc3ccc(N4CCN(C(=O)N5CCC(N6CCC(c7ccc8c(c7)C(=O)N(C7CCC(=O)NC7=O)C8=O)CC6)CC5)CC4)cn3)nc2n(C2CCCC2)c1=O (stereo not drawn) [Compound 7, 5-(1′-(4-(6-((6-acetyl-8-cyclopentyl-5-methyl-7-oxo-7,8-dihydropyrido[2,3-d]pyrimidin-2-yl)amino)pyridin-3-yl)piperazine-1-carbonyl)-[1,4′-bipiperidin]-4-yl)-2-(2,6-dioxopiperidin-3-yl)isoindoline-1,3-dione] | 
13 | > 200 | > 50 | > 200 | > 50 | > 200 | CC(=O)c1c(C)c2cnc(Nc3ccc(N4CCN(C(=O)N5CCC(C6CCN(c7ccc8c(c7)C(=O)N(C7CCC(=O)NC7=O)C8=O)CC6)CC5)CC4)cn3)nc2n(C2CCCC2)c1=O (stereo not drawn) [Compound 9, 5-(1′-(4-(6-((6-acetyl-8-cyclopentyl-5-methyl-7-oxo-7,8-dihydropyrido[2,3-d]pyrimidin-2-yl)amino)pyridin-3-yl)piperazine-1-carbonyl)-[4,4′-bipiperidin]-1-yl)-2-(2,6-dioxopiperidin-3-yl)isoindoline-1,3-dione] | 
14 | 50 to 200 | > 60 | 50 to 200 | > 60 | 50 to 200 | CC(=O)c1c(C)c2cnc(Nc3ccc(N4CCN(C(=O)N5CCC(CN6CCN(c7ccc8c(c7)C(=O)N(C7CCC(=O)NC7=O)C8=O)CC6)CC5)CC4)cn3)nc2n(C2CCCC2)c1=O (stereo not drawn) [Compound 11] | 
15 | > 200 | > 50 | > 200 | > 50 | > 200 | CC(=O)c1c(C)c2cnc(Nc3ccc(N4CCN(C(=O)N5CCN(CC6CCN(c7ccc8c(c7)C(=O)N(C7CCC(=O)NC7=O)C8=O)CC6)CC5)CC4)cn3)nc2n(C2CCCC2)c1=O (stereo not drawn) [Compound 15, 5-(4-((4-(4-(6-((6-acetyl-8-cyclopentyl-5-methyl-7-oxo-7,8-dihydropyrido[2,3-d]pyrimidin-2-yl)amino)pyridin-3-yl)piperazine-1-carbonyl)piperazin-1-yl)methyl)piperidin-1-yl)-2-(2,6-dioxopiperidin-3-yl) isoindoline-1,3-dione] | 

From patent US20230295118A1 (EnhancedBio Inc., priority 2022, published 2023)
